Results: patent US20230149483A1, “SHORT-CHAIN FATTY ACID USE TO MITIGATE ANT[…] VIRULENCE GENE TRANSFER IN THE GUT” (Iowa State University Research Foundation, Inc., priority 2021, published 2023)
Read-outs that look alike come from different tables or passages of the source.

Experiments:
[1] = tested on: conjugation pair E. coli APEC-02 to E. coli HS-4 in chicken ceca explants; assay type: cell-based
Experimental: Ex vivo ceca explants serve as models for bacterial host interactions. Plasmid transfer and its inhibition by SCFAs were tested using chicken ceca explants to mimic in vivo conditions. Chicken ceca explants were harvested from 2 week-old chickens, cultured in vitro, and used in co-culture with donors/recipients in the presence or absence of SCFAs.

[2] = tested on: conjugation pair E. coli APEC-02 to E. coli HS-4 (plasmid pAPEC-02-211A-ColV, IncF); assay type: cell-based
[3] = tested on: conjugation pairs S. Kentucky CVM29188 to E. coli HS-4 and E. coli APEC-02 to E. coli HS-4; conditions: for reduction of donor and recipient strains / transconjugant populations: physiological concentrations of SCFAs in the chicken gut, both conjugation pairs
Experimental: Physiological concentrations of SCFAs in the chicken gut were added to broth conjugations with the conjugation pairs 1) S. Kentucky CVM29188 to E. coli HS-4, and 2) E. coli APEC-02 to E. coli HS-4 (FIG. 3).

[4] = tested on: transfer of conjugative plasmid pCVM29188_146 (IncF) between E. coli MG1655 (pCVM29188_146) and E. coli HS-4; test: In vitro broth conjugation with propionate at fly media concentrations; assay type: cell-based; conditions: as low as half the concentrations of standard Drosophila fly media
[5] = 25 mM, each SCFA used individually, ceca explants from 2 week-old chickens
[6] = broth conjugation, varying molar concentrations between 0 and 1 molar (FIG. 4)

Compound	efficacy in inhibition of plasmid transfer [1]	transconjugant populations [2]	reduction of donor and recipient strains [3]	transconjugant populations [3]	efficacy in inhibition of plasmid transfer [1, 5]	transconjugant populations [2, 6]	conjugation ([3]; physiological concentrations of propionate in the chicken gut)	conjugation frequency (transconjugants divided by donors) [4]
CC(=O)O [acetic acid]	showed efficacy	significantly reduced	not	significantly reduced	–	–	–	–
CCCC(=O)O [butyric acid, butyric (butanoic) acid]	–	–	not	significantly reduced	showed efficacy	significantly reduced	–	–
O=CO [formic acid]	showed efficacy	significantly reduced	–	–	–	–	–	–
CC(C)C(=O)O [isobutyric acid, isobutyric (2-methylbutanoic) acid]	–	–	–	–	showed efficacy	significantly reduced	–	–
CC(C)CC(=O)O [isovaleric acid, isovaleric (3-methylbutanoic)]	–	–	–	–	showed efficacy	significantly reduced	–	–
CCC(=O)O [propionic acid]	–	–	–	–	showed efficacy	significantly reduced	did not significantly reduce	significant decreases
CCCCC(=O)O [valeric acid, valeric (pentanoic) acid]	–	–	–	–	showed efficacy	significantly reduced	–	–
